Test system: PARP 1
Experiment: HTRF assay for PARP 1 inhibitory effect
Format: biochemical, human or bovine
Conditions: at 10 μM
Excerpt: In the HTRF PARP assay according to the invention, histones, as target proteins for modification by PARP, are labeled indirectly with an XL665 fluorophore. The antibody is labeled directly with a europium cryptate. If the XL665 fluorophore is in the direct vicinity in space, which is ensured by binding to the poly(ADP-ribose) on the histone, then an energy transfer is possible. The emission at 665 nm is thus directly proportional to the amount of bound antibody, which in turn is equivalent to the amount of poly(ADP-ribose). The measured signal thus corresponds to the PARP activity. The principle of measurement is depicted diagrammatically in FIG. 7. The materials used are identical to those used in the ELISA (see above) unless expressly stated.
Histones were dissolved in a concentration of 3 mg/ml in Hepes buffer (50 mM, pH=7.5). Biotinylation took place with sulfo-NHS-LC-biotin (Pierce, #21335T). A molar ratio of 4 biotin per histone was used. The incubation time was 90 minutes (RT). The biotinylated histones were then purified on a G25 SF HR10/10 column (Pharmacia, 17-0591-01) in Hepes buffer (50 mM, pH=7.0) in order to remove excess biotinylation reagent. […]
Measurement was then possible after 30 minutes (up to 4 hours). […] The Ki values were calculated as described for the ELISA. […]

O=c1[nH]nc(CN2CCN(c3ccccc3)CC2)c2ccccc12 [4-(4-phenylpiperazin-1-yl)methyl-2H-phthalazin-1-one]
inhibition of PARP 1: 38%

— patent US6903098B1, “Use of phthalazine derivatives” (Abbott GmbH & Co., priority 1999, dated 2005)
